In ChEMBL document CHEMBL3991601, “The target landscape of clinical kinase drugs” (Science, 2017):
The source made the active and inactive calls.

Target: T1, Ephrin type-B receptor 3 (Homo sapiens, UniProt P54753)
T1 sequence (P54753 whole entry): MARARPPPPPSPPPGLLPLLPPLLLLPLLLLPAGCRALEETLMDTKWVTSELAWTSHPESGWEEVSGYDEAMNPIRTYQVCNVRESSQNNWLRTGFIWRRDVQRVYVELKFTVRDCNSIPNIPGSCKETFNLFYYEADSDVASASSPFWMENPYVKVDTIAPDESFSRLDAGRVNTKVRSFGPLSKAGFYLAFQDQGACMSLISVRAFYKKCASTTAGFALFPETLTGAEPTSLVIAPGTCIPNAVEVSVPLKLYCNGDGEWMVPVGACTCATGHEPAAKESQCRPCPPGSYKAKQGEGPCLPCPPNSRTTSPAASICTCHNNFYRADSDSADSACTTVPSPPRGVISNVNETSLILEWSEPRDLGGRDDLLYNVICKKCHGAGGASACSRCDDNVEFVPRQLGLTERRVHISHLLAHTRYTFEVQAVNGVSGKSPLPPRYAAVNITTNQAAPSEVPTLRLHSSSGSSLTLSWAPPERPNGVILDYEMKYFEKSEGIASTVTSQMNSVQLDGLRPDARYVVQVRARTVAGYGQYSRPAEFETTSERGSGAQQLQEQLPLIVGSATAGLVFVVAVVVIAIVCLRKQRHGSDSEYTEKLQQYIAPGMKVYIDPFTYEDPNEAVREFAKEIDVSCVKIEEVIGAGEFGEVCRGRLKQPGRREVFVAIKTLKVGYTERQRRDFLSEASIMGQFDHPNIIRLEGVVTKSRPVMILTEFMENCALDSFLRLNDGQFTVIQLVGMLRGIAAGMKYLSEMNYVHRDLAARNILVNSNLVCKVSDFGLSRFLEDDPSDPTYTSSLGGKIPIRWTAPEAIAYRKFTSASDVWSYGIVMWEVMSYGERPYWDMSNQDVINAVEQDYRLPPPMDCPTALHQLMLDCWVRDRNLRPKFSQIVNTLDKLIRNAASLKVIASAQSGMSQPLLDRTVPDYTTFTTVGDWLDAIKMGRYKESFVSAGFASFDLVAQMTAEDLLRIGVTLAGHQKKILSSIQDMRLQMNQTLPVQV
Further: in the data inactive means no Kd found up to 30 µM.

Compound	Kd
Cc1ccc(NC(=O)c2ccc(CN3CC[C@H](N(C)C)C3)c(C(F)(F)F)c2)cc1Nc1nccc(-c2cncnc2)n1 [BAFETINIB]	4.55 µM (active)
CCS(=O)(=O)N1CC(CC#N)(n2cc(-c3ncnc4[nH]ccc34)cn2)C1 [BARICITINIB]	> 30 µM (inactive)
Cc1cc2c(F)c(Oc3ncnn4cc(OC[C@@H](C)OC(=O)[C@H](C)N)c(C)c34)ccc2[nH]1 [BRIVANIB ALANINATE]	> 30 µM (inactive)
CNC(=O)c1ccc(-c2cnc3ncc(Cc4ccc5ncccc5c4)n3n2)cc1F [CAPMATINIB]	> 30 µM (inactive)
O=C(c1ccc(F)c(F)c1Nc1ccc(I)cc1F)N1CC(O)([C@@H]2CCCCN2)C1 [COBIMETINIB]	> 30 µM (inactive)
Cc1nc(N)sc1-c1ccnc(Nc2ccc(N3CCOCC3)cc2)n1 [CYC-116]	> 30 µM (inactive)
CCc1cnn2c(NCc3ccc[n+]([O-])c3)cc(N3CCCC[C@H]3CCO)nc12 [DINACICLIB]	> 30 µM (inactive)
COCCNCc1ccc(-c2cc3nccc(Oc4ccc(NC(=S)NC(=O)Cc5ccc(F)cc5)cc4F)c3s2)nc1 [GLESATINIB]	> 30 µM (inactive)

Target: Epithelial discoidin domain-containing receptor 1 (Homo sapiens, UniProt Q08345)
Sequence (Q08345 whole entry, the tested form may be a part): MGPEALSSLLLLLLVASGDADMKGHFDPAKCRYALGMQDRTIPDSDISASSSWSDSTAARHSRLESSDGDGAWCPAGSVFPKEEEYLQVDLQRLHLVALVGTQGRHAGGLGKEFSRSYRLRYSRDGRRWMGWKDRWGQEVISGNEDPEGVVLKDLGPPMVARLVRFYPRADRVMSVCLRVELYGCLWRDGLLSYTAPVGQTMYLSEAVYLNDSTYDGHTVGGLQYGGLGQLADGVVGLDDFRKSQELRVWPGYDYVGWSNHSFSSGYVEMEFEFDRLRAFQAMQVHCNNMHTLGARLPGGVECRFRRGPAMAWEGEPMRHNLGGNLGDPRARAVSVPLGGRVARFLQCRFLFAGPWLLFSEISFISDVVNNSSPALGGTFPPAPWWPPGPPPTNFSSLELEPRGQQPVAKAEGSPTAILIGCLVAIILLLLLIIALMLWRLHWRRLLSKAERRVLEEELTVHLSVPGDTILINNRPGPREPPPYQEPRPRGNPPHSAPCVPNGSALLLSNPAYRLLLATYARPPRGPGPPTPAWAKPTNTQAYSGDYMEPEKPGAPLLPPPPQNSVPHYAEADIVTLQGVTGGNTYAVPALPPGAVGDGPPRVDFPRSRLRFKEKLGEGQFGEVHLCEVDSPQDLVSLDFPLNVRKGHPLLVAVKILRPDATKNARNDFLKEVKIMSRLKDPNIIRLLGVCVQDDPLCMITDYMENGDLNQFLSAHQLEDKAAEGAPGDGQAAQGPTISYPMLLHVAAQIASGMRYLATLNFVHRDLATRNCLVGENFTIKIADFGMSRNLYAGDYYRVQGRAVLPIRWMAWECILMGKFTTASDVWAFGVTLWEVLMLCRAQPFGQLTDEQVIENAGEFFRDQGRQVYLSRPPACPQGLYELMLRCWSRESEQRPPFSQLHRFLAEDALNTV

Compound	Kd
Cc1ccc(NC(=O)c2ccc(CN3CC[C@H](N(C)C)C3)c(C(F)(F)F)c2)cc1Nc1nccc(-c2cncnc2)n1 [BAFETINIB]	0.014 µM (active)
CCS(=O)(=O)N1CC(CC#N)(n2cc(-c3ncnc4[nH]ccc34)cn2)C1 [BARICITINIB]	> 30 µM (inactive)
Cc1cc2c(F)c(Oc3ncnn4cc(OC[C@@H](C)OC(=O)[C@H](C)N)c(C)c34)ccc2[nH]1 [BRIVANIB ALANINATE]	1.04 µM (active)
CNC(=O)c1ccc(-c2cnc3ncc(Cc4ccc5ncccc5c4)n3n2)cc1F [CAPMATINIB]	> 30 µM (inactive)
O=C(c1ccc(F)c(F)c1Nc1ccc(I)cc1F)N1CC(O)([C@@H]2CCCCN2)C1 [COBIMETINIB]	> 30 µM (inactive)
Cc1nc(N)sc1-c1ccnc(Nc2ccc(N3CCOCC3)cc2)n1 [CYC-116]	> 30 µM (inactive)
CCc1cnn2c(NCc3ccc[n+]([O-])c3)cc(N3CCCC[C@H]3CCO)nc12 [DINACICLIB]	> 30 µM (inactive)

Target: T2, Heme oxygenase 2 (Homo sapiens, UniProt P30519)
T2 sequence (P30519 whole entry): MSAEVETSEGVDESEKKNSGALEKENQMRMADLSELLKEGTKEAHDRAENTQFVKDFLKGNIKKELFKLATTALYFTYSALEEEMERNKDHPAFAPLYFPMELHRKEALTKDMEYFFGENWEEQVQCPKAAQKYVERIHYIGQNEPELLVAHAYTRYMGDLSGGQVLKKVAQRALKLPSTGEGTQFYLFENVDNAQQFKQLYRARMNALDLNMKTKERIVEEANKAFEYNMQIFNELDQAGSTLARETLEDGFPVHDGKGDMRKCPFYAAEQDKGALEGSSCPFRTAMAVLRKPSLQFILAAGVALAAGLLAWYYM

Compound	Kd
Cc1ccc(NC(=O)c2ccc(CN3CC[C@H](N(C)C)C3)c(C(F)(F)F)c2)cc1Nc1nccc(-c2cncnc2)n1 [BAFETINIB]	> 30 µM (inactive)
CCS(=O)(=O)N1CC(CC#N)(n2cc(-c3ncnc4[nH]ccc34)cn2)C1 [BARICITINIB]	> 30 µM (inactive)
Cc1cc2c(F)c(Oc3ncnn4cc(OC[C@@H](C)OC(=O)[C@H](C)N)c(C)c34)ccc2[nH]1 [BRIVANIB ALANINATE]	> 30 µM (inactive)
CNC(=O)c1ccc(-c2cnc3ncc(Cc4ccc5ncccc5c4)n3n2)cc1F [CAPMATINIB]	> 30 µM (inactive)
O=C(c1ccc(F)c(F)c1Nc1ccc(I)cc1F)N1CC(O)([C@@H]2CCCCN2)C1 [COBIMETINIB]	> 30 µM (inactive)
Cc1nc(N)sc1-c1ccnc(Nc2ccc(N3CCOCC3)cc2)n1 [CYC-116]	> 30 µM (inactive)
CCc1cnn2c(NCc3ccc[n+]([O-])c3)cc(N3CCCC[C@H]3CCO)nc12 [DINACICLIB]	> 30 µM (inactive)
CN1CCN(c2ccc3nc(-c4c(N)c5c(F)cccc5[nH]c4=O)[nH]c3c2)CC1 [DOVITINIB]	> 30 µM (inactive)
COCCNCc1ccc(-c2cc3nccc(Oc4ccc(NC(=S)NC(=O)Cc5ccc(F)cc5)cc4F)c3s2)nc1 [GLESATINIB]	> 30 µM (inactive)
CCn1c(-c2nonc2N)nc2c(C#CC(C)(C)O)ncc(OC[C@H]3CCCNC3)c21 [GSK-690693]	> 30 µM (inactive)
Cc1cn(-c2cc(NC(=O)c3ccc(C)c(Nc4nccc(-c5cccnc5)n4)c3)cc(C(F)(F)F)c2)cn1 [NILOTINIB]	> 30 µM (inactive)
Nc1nc(N)c2nc(-c3cccc(O)c3)c(-c3cccc(O)c3)nc2n1 [TG100-115]	> 30 µM (inactive)

Target: T3, Tyrosine-protein kinase Tec (Homo sapiens, UniProt P42680)
T3 sequence (P42680 whole entry): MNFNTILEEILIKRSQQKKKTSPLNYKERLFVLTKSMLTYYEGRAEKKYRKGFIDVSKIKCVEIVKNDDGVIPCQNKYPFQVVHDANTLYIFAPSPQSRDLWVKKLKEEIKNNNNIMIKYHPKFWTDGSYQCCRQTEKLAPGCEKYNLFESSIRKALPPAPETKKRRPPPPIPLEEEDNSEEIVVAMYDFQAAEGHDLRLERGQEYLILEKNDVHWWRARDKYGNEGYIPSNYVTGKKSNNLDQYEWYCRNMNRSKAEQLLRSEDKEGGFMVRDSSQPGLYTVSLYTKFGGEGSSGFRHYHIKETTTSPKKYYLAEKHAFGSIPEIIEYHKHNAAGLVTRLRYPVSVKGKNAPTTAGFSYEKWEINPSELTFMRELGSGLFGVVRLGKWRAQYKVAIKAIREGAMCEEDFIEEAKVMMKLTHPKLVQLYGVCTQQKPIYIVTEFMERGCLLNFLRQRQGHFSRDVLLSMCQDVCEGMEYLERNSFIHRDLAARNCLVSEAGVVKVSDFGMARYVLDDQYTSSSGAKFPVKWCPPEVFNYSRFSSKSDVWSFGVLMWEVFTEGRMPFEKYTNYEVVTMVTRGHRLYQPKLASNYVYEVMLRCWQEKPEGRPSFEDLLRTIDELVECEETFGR

Compound	Kd
Cc1ccc(NC(=O)c2ccc(CN3CC[C@H](N(C)C)C3)c(C(F)(F)F)c2)cc1Nc1nccc(-c2cncnc2)n1 [BAFETINIB]	> 30 µM (inactive)
CCS(=O)(=O)N1CC(CC#N)(n2cc(-c3ncnc4[nH]ccc34)cn2)C1 [BARICITINIB]	> 30 µM (inactive)
Cc1cc2c(F)c(Oc3ncnn4cc(OC[C@@H](C)OC(=O)[C@H](C)N)c(C)c34)ccc2[nH]1 [BRIVANIB ALANINATE]	> 30 µM (inactive)
CNC(=O)c1ccc(-c2cnc3ncc(Cc4ccc5ncccc5c4)n3n2)cc1F [CAPMATINIB]	> 30 µM (inactive)
O=C(c1ccc(F)c(F)c1Nc1ccc(I)cc1F)N1CC(O)([C@@H]2CCCCN2)C1 [COBIMETINIB]	> 30 µM (inactive)
CCc1cnn2c(NCc3ccc[n+]([O-])c3)cc(N3CCCC[C@H]3CCO)nc12 [DINACICLIB]	> 30 µM (inactive)
COCCNCc1ccc(-c2cc3nccc(Oc4ccc(NC(=S)NC(=O)Cc5ccc(F)cc5)cc4F)c3s2)nc1 [GLESATINIB]	> 30 µM (inactive)

Target: T4, Dynamin-like GTPase OPA1, mitochondrial (Homo sapiens, UniProt O60313)
T4 sequence (O60313 whole entry): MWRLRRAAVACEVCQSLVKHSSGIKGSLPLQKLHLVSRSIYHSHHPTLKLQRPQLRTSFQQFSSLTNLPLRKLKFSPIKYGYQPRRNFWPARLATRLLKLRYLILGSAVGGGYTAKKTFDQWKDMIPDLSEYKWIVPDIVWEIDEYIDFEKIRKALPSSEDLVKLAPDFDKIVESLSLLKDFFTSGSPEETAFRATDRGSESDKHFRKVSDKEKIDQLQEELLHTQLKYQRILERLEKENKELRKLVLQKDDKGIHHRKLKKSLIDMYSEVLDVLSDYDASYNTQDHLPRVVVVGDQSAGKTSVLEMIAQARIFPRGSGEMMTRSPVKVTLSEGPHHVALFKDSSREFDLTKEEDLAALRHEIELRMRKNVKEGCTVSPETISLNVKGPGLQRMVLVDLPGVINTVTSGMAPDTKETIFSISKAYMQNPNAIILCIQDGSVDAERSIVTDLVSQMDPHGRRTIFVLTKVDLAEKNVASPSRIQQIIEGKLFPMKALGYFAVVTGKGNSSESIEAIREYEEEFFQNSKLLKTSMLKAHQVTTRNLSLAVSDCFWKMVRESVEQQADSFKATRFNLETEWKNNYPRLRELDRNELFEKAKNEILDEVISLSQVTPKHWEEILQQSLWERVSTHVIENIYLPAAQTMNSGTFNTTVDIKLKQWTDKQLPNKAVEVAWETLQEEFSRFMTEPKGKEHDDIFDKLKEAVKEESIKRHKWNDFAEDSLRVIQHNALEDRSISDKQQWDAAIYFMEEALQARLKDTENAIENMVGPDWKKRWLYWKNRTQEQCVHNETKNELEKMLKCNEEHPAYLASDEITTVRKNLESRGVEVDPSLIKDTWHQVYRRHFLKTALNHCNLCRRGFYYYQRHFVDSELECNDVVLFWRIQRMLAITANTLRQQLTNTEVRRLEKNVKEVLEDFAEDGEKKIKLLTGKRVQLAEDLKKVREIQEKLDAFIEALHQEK

Compound	Kd
Cc1ccc(NC(=O)c2ccc(CN3CC[C@H](N(C)C)C3)c(C(F)(F)F)c2)cc1Nc1nccc(-c2cncnc2)n1 [BAFETINIB]	> 30 µM (inactive)
CCS(=O)(=O)N1CC(CC#N)(n2cc(-c3ncnc4[nH]ccc34)cn2)C1 [BARICITINIB]	> 30 µM (inactive)
Cc1cc2c(F)c(Oc3ncnn4cc(OC[C@@H](C)OC(=O)[C@H](C)N)c(C)c34)ccc2[nH]1 [BRIVANIB ALANINATE]	> 30 µM (inactive)
CNC(=O)c1ccc(-c2cnc3ncc(Cc4ccc5ncccc5c4)n3n2)cc1F [CAPMATINIB]	> 30 µM (inactive)
O=C(c1ccc(F)c(F)c1Nc1ccc(I)cc1F)N1CC(O)([C@@H]2CCCCN2)C1 [COBIMETINIB]	> 30 µM (inactive)
Cc1nc(N)sc1-c1ccnc(Nc2ccc(N3CCOCC3)cc2)n1 [CYC-116]	> 30 µM (inactive)
CCc1cnn2c(NCc3ccc[n+]([O-])c3)cc(N3CCCC[C@H]3CCO)nc12 [DINACICLIB]	> 30 µM (inactive)
CN1CCN(c2ccc3nc(-c4c(N)c5c(F)cccc5[nH]c4=O)[nH]c3c2)CC1 [DOVITINIB]	> 30 µM (inactive)
COCCNCc1ccc(-c2cc3nccc(Oc4ccc(NC(=S)NC(=O)Cc5ccc(F)cc5)cc4F)c3s2)nc1 [GLESATINIB]	> 30 µM (inactive)
CCn1c(-c2nonc2N)nc2c(C#CC(C)(C)O)ncc(OC[C@H]3CCCNC3)c21 [GSK-690693]	> 30 µM (inactive)
Cc1cn(-c2cc(NC(=O)c3ccc(C)c(Nc4nccc(-c5cccnc5)n4)c3)cc(C(F)(F)F)c2)cn1 [NILOTINIB]	> 30 µM (inactive)
Nc1nc(N)c2nc(-c3cccc(O)c3)c(-c3cccc(O)c3)nc2n1 [TG100-115]	> 30 µM (inactive)
